Test results as given in patent EP1685120B1, “COLOURING HYDROSOLUBLE YELLOW PREPARATION DERIVED FROM DIHYDROCHALCONES” (INSTITUT NATIONAL DE LA RECHERCHE AGRONOMIQUE, priority 2003, dated 2005).
Several values for one entry are separate records, joined by “and”; a condition that tells them apart may be missing. Equal values may be shown once. Read-outs that look alike come from different tables or passages of the source.

Key:
[1] = values of Pulido et al. (2000); cited from earlier work
[2] = FRAP method (Ferric Reducing Antioxidant Power), aqueous medium, 10 min incubation (after Pulido et al., 2000); assay type: biochemical; details: for TEAC: FRAP, Trolox equivalent, (SD); for EC1: antioxidant concentration with reducing power equivalent to 1 mmol/L FeSO4 7 H2O, 10 min incubation, mean of 3 (SD)
Protocol: (§1) Pour comparaison ou pour l'expression des résultats, les capacités antioxydantes des composés suivants ont été également mesurées : vitamine C (acide ascorbique), Trolox (analogue hydrosoluble de la vitamine E), (-)-épicatéchine, et phloridzine.
Tableau III - Mesure de la capacité antioxydante en milieu aqueux par la méthode FRAP pour 10 minutes d'incubation (d'après Pulido et al., 2000).

[3] = DPPH method, antioxidant capacity in methanolic medium (after Brand-Williams et al., 1995); assay type: biochemical; details: for TEAC (Trolox équivalent antioxidant capacity): DPPH, relative to Trolox; for capacité antioxydante: overall conclusion in words from DPPH and FRAP
From the text: as §1
Les résultats sont présentés dans les tableaux II et III ci dessous.

[4] = sign only; other natural yellow colourants, source not given; cited from earlier work
[5] = Molar extinction coefficient (UV-visible); assay type: physicochemical
From the text: Une solution à 20 ppm de ce composéest jaune intense.
Le spectre UV-visible d'une solution de préparation POP a été mesuré pour différents pH entre 2 et 8 (voir figure 1). Des mesures de couleur (chromamètre Minolta) ont également été réalisées dans cette zone de pH. Les résultats détaillés des paramètres colorimétriques sont consignés ci-après.

cellules TC-7 = test: Cytotoxicity test, cell viability by neutral red method; assay type: cell-based; details: for % Témoin / DO Moyenne: 2 h; for % Témoin: cell viability; for DO Moyenne: mean of 5
Protocol: Cellules TC-7 (sous clone de caco-2) cultivées sur nacelles (membrane en polyéthylène téréphtalate), utilisées à 21 jours de confluence, fournie par Bioprédic International
Emploi des cellules au passage 21.
Pas de solvant utilisé pour la solubilisation des produits à l'essai.
Système réactionnel : cultures de cellules TC-7 incubées en présence des produits à l'essai aux différentes concentrations citées ci-dessus.
Temps d'incubation : 2 heures. [drawing 6] ↑ : incubation des produits à l'essai ? : évaluation des effets Replicate : 5 par concentrations. Température d'incubation : 37°C. Autres conditions : atmosphère humide contenant 5 % de CO2.
Témoin : correspondant aux cellules incubées en absence de produit à l'essai [drawing 8] Replicate : 10
Viabilité cellulaire mesurée selon la méthode du rouge neutre après incubation avec les produits à l'essai : • incubation en présence de rouge neutre pendant 3 heures • lyse des cellules et lecture de la densité optique avec un spectrophotomètre à 540 nm (la densité optique du rouge neutre est proportionnelle au nombre de cellules vivantes).
Expression des résultats : en unités arbitraires de D.O.(densité optique) par échantillon et en pourcentage de variation par rapport au groupe témoin.

[6] = Optical density at 420 nm of the esterification reaction medium (colouring capacity); assay type: physicochemical; details: unpurified POP fraction incubated with acidified alcohol, 50 °C, 1 h
From the text: Le volume d'alcool est ajusté de façon à avoir une concentration finale en fraction POP de 1 g.L^-1. Les alcools suivants ont été testés : méthanol, propanol-1, propanol-2, butanol-1, butanol-3, hexanol-1, octanol-1.
Confirmation de la conversion en esters : la formation des esters correspondant a été montrée par HPLC couplée à la spectrométrie de masse en mode négatif et avec également en série une détection à 420 nm (jaune). […] Tableau I: Temps de rétention chromatographique, ions pseudo-moléculaires et rendements de conversion du composé de formule I-b-1 et de ses dérivés estérifiés.

[7] = Colorimetric parameters CIE L*a*b* (Minolta CM-3600d spectrophotometer) in Mc Ilvaine buffer; assay type: physicochemical; parameters: key to L* : luminosité / a* : axe vert-rouge / b* : axe bleu-jaune: CIE L*a*b* coordinates (illuminant D65, 10° observer)
From the text: Les paramètres de coloration du colorant par rapport à de l'eau distillée (référence) ont été mesurés en solution dans un tampon de M^c Ilvaine (citrate-phosphate) à différents pH (2,2 à 8) et ce, pour plusieurs concentrations.
Les mesures ont été réalisées à l'aide d'un spectrophotomètre Minolta CM-3600d (©1998 Minolta Co., Ltd. Japon) avec la plaque de calibration (Minolta n° 13171008). Le spectrophotomètre équipé d'un logiciel de retraitement SpectraMagic V 3.60G (Cyberchrome Inc Minolta Co. Ltd), a été paramétré pour utiliser l'espace colorimétrique CIE L*a*b (Figure 2), avec l'illuminant D65-10° (D65-A-F2), et l'observateur moyen normalisé 10° CIE 1964 (sensibilité d'un oeil moyen). A partir des valeurs a* et b* nous avons calculé les coordonnées polaires C* = sqrt(((a*))^2 + ((b*))^2) et h = tan g^-1 ((a*)/(b*)) × (180)/(Pi) [formula] Dans la suite du texte nous exploiterons principalement ces coordonnées polaires C* et h, car elles ont chacune une signification colorimétrique : C* est la distance au centre de l'espace et correspond à la saturation de la couleur alors que h est un angle (exprimé ici en degré) qui définit la teinte. A titre indicatif pour la couleur rouge la teinte se situe au voisinage de 0°, pour le jaune environ 90°, pour le vert 180° et pour le bleu 270°. La valeur L* est utilisée telle quelle et exprime la clarté.

[8] = 5 mg/L, pH 3, tampon de Mc Ilvaine
[9] = 10 mg/L, pH 3, tampon de Mc Ilvaine
[10] = 20 mg/L, pH 3, tampon de Mc Ilvaine
[11] = 40 mg/L, pH 3, tampon de Mc Ilvaine
[12] = 100 mg/L, pH 3, tampon de Mc Ilvaine
[13] = pH 2,2, env. 20 mg/L, tampon de Mc Ilvaine
[14] = pH 3, env. 20 mg/L, tampon de Mc Ilvaine
[15] = pH 4, env. 20 mg/L, tampon de Mc Ilvaine
[16] = pH 5, env. 20 mg/L, tampon de Mc Ilvaine
[17] = pH 6, env. 20 mg/L, tampon de Mc Ilvaine
[18] = pH 7, env. 20 mg/L, tampon de Mc Ilvaine
[19] = pH 8, env. 20 mg/L, tampon de Mc Ilvaine

Cc1c(C)c2c(c(C)c1O)CCC(C)(C(=O)O)O2 (stereo not drawn) [Trolox]
EC1 [1]: 322
TEAC [2]: 1.00 (0.02)
EC1 [2]: 411 µmol/L and 411 (10) µmol/L
TEAC (Trolox équivalent antioxidant capacity) [3]: 1,00

O=C(O)CCc1cc(O)c(O)cc1-c1c(O)cc(O)cc1C1O[C@H](CO)[C@@H](O)[C@H](O)[C@H]1O (stereo partly drawn) [I-a-1, acide 3-(4,5,4',6'-tetrahydroxy-2'-glucosyl-biphenyl-2-yl)-propionique]
EC1 [2]: 477 (15) µmol/L
TEAC (Trolox équivalent antioxidant capacity) [3]: 0,78
capacité antioxydante, fold over phloridzine ([3]; overall conclusion from DPPH and FRAP): 10 fois
capacité antioxydante [3]: capacité antioxydante importante

O=C(CCc1ccc(O)cc1)c1c(O)cc(O)cc1O[C@@H]1O[C@H](CO)[C@@H](O)[C@H](O)[C@H]1O [Phloridzine, phloridzine, reference compound]
TEAC [2]: 0.08 (0.00)
TEAC (Trolox équivalent antioxidant capacity) [3]: 0,09
capacité antioxydante [3]: très faible

COc1cc(/C=C/C(=O)CC(=O)/C=C/c2ccc(O)c(OC)c2)ccc1O [curcumine]
logP (P coeff. de partage [n-octanol/eau]) [4]: positif

O=c1c(O)c(-c2ccc(O)c(O)c2)oc2cc(O)cc(O)c12 [quercétine]
logP (P coeff. de partage [n-octanol/eau]) [4]: positif

O=C1O[C@H]([C@@H](O)CO)C(O)=C1O [Vitamine C, acide ascorbique]
EC1 [1]: 392
TEAC [2]: 1.03 (0.02)
EC1 [2]: 400 (9) µmol/L
EC1 ([2]; listed as vitamine C): 400 µmol/L
TEAC (Trolox équivalent antioxidant capacity) [3]: 0,98

Oc1cc(O)c2c(c1)O[C@H](c1ccc(O)c(O)c1)[C@H](O)C2 [(-)-épicatéchine]
EC1 [1]: 348
TEAC [2]: 1.14 (0.03)
EC1 [2]: 359 µmol/L and 359 (11) µmol/L
TEAC (Trolox équivalent antioxidant capacity) [3]: 1,12

acide 3-(4'-hydroxy-2'-glucosyl-4,5-dioxo-3,6-dihydro-2H-dibenzofuran-2-yl)-propionique [I-b-1]
coefficient d'extinction molaire ([5]; 420 nm à pH 3, estimated): 17400 mol⁻¹ cm⁻¹
coefficient d'extinction molaire ε ([5]; pH 3): 17 400 DO.mol^-1.L^-2.cm^-1
% Témoin (cellules TC-7; 20 µM): 101%
DO Moyenne (cellules TC-7; 20 µM): 0,489
% Témoin (cellules TC-7; 100 µM): 104%
DO Moyenne (cellules TC-7; 100 µM): 0,504
% Témoin (cellules TC-7; 200 µM): 96%
DO Moyenne (cellules TC-7; 200 µM): 0,467
effet sur la viabilité cellulaire (cellules TC-7; 1000 µM): une légère diminution de la viabilité cellulaire
% Témoin (cellules TC-7; 1000 µM): 104%
DO Moyenne (cellules TC-7; 1000 µM): 0,504
% Témoin (cellules TC-7; 2000 µM): 93%
DO Moyenne (cellules TC-7; 2000 µM): 0,448
effet sur la viabilité cellulaire (cellules TC-7; at the tested concentrations (20-2000 µM)): n'a pas eu d'effet sur la viabilité cellulaire
effet sur la viabilité cellulaire (cellules TC-7; jusqu'à 200 µM): Aucun effet inhibiteur de référence n'a été noté
DO 420 nm (jaune) du milieu réactionnel dilué à 0,1 g/l [6]: 0,973
L* : luminosité [7, 8]: 99,6
Teinte CIE [7, 8]: 3,5
a* : axe vert-rouge [7, 8]: -4,6
b* : axe bleu-jaune [7, 8]: 11,5
L* : luminosité [7, 9]: 99,3
Teinte CIE [7, 9]: 6,7
a* : axe vert-rouge [7, 9]: -8,5
b* : axe bleu-jaune [7, 9]: 22,8
L* : luminosité [7, 10]: 98,7
Teinte CIE [7, 10]: 11,1
a* : axe vert-rouge [7, 10]: -13,6
b* : axe bleu-jaune [7, 10]: 41,5
L* : luminosité [7, 11]: 97,9
Teinte CIE [7, 11]: 14,3
a* : axe vert-rouge [7, 11]: -17,7
b* : axe bleu-jaune [7, 11]: 67,1
L* : luminosité [7, 12]: 96,5
Teinte CIE [7, 12]: 10,4
a* : axe vert-rouge [7, 12]: -17,8
b* : axe bleu-jaune [7, 12]: 96,0
L* : luminosité [7, 13]: 98,7
Teinte CIE [7, 13]: 11,2
a* : axe vert-rouge [7, 13]: -13,5
b* : axe bleu-jaune [7, 13]: 40,7
L* : luminosité [7, 14]: 98,5
Teinte CIE [7, 14]: 11,0
a* : axe vert-rouge [7, 14]: -13,4
b* : axe bleu-jaune [7, 14]: 41,1
L* : luminosité [7, 15]: 98,4
Teinte CIE [7, 15]: 10,2
a* : axe vert-rouge [7, 15]: -13,2
b* : axe bleu-jaune [7, 15]: 42,3
L* : luminosité [7, 16]: 97,5
Teinte CIE [7, 16]: 5,9
a* : axe vert-rouge [7, 16]: -11,4
b* : axe bleu-jaune [7, 16]: 46,7
L* : luminosité [7, 17]: 93,5
Teinte CIE [7, 17]: -20,5
a* : axe vert-rouge [7, 17]: -0,1
b* : axe bleu-jaune [7, 17]: 57,7
L* : luminosité [7, 18]: 88,1
Teinte CIE [7, 18]: -63,5
a* : axe vert-rouge [7, 18]: 16,3
b* : axe bleu-jaune [7, 18]: 71,4
L* : luminosité [7, 19]: 87,1
Teinte CIE [7, 19]: -71,8
a* : axe vert-rouge [7, 19]: 19,5
b* : axe bleu-jaune [7, 19]: 72,2
Teinte CIE ([7]; pH inférieur à 5-6 (yellow)): 10
Teinte CIE ([7]; pH supérieurs (orange)): -50
TEAC (Trolox équivalent antioxidant capacity) [3]: 0,09
capacité antioxydante [3]: faible capacité antioxydante
